Tests used:
Assay in all cases: greenhouse pre-emergence herbicidal test
Type in all cases: in vivo
Settings in all cases: 250 g/ha, scale 0 to 100
[1] = test system: Amaranthus retroflexus
Source text: (§1) The culture containers used were plastic flowerpots containing loamy sand with approximately 3.0% of humus as the substrate. The seeds of the test plants were sown separately for each species.
(§2) For the pre-emergence treatment, the active ingredients, which had been suspended or emulsified in water, were applied directly after sowing by means of finely distributing nozzles. The containers were irrigated gently to promote germination and growth and subsequently covered with transparent plastic hoods until the plants had rooted. This cover caused uniform germination of the test plants, unless this had been impaired by the active ingredients.
(§3) Depending on the species, the plants were kept at 10-25° C. or 20-35° C., respectively.
(§4) The test period extended over 2 to 4 weeks. During this time, the plants were tended, and their response to the individual treatments was evaluated.
(§5) Evaluation was carried out using a scale from 0 to 100. 100 means no emergence of the plants, or complete destruction of at least the aerial moieties, and 0 means no damage, or normal course of growth. A moderate herbicidal activity is given at values of at least 60, a good herbicidal activity is given at values of at least 70, and a very good herbicidal activity is given at values of at least 85.

[2] = test system: Echinocloa crus-galli
Source text: as §1, §2, §3, §4, §5

[3] = test system: Setaria faberi
Source text: The culture containers used were plastic flowerpots containing loamy sand with approximately 3.0% of humus as the substrate. The seeds of the test plants were sown separately for each species. For the pre-emergence treatment, the active ingredients, which had been suspended or emulsified in water, were applied directly after sowing by means of finely distributing nozzles. The containers were irrigated gently to promote germination and growth and subsequently covered with transparent plastic hoods until the plants had rooted. This cover caused uniform germination of the test plants, unless this had been impaired by the active ingredients. […] The test period extended over 2 to 4 weeks. During this time, the plants were tended, and their response to the individual treatments was evaluated. Evaluation was carried out using a scale from 0 to 100. 100 means no emergence of the plants, or complete destruction of at least the aerial moieties, and 0 means no damage, or normal course of growth.

[4] = test system: Alopercurus myosuroides
Source text: as §1, §2, §3, §4, §5

Compound | herbicidal activity [1] [%] | herbicidal activity [2] [%] | herbicidal activity [3] [%] | herbicidal activity [4] [%]
CC(C)(F)c1nc(N)nc(Nc2c(F)cccc2OCc2ccc(F)cc2)n1 [Example 6] | 100 | 100 | 100 | –
CC(Oc1cccc(F)c1Nc1nc(N)nc(C(C)(C)F)n1)c1ccccc1 (stereo not drawn) [Example 23] | – | 100 | 75 | –
CC(C)(C)c1nc(N)nc(Nc2c(F)cccc2OCc2ccccc2)n1 [Example 33] | – | 60 | – | 75
CC(C)(F)c1nc(N)nc(Nc2c(F)cccc2OCc2nccs2)n1 [Example 36] | 100 | 75 | – | –
CC1(c2nc(N)nc(Nc3c(F)cccc3OCc3ccccc3)n2)CCC1 [Example 52] | – | 90 | 85 | –
COc1cc(F)cc(COc2cccc(F)c2Nc2nc(N)nc(C(C)(C)F)n2)c1 [Example 54] | – | 100 | – | 90
CC(C)(F)c1nc(N)nc(Nc2c(F)cccc2OCc2cccc(OC(F)F)c2)n1 [Example 58] | 100 | 90 | 100 | –
CC(C)C(F)c1nc(N)nc(Nc2c(F)cccc2OCc2ccccc2)n1 (stereo not drawn) [Example 65] | – | 95 | – | 95
CC(C)(F)c1nc(N)nc(Nc2c(F)ccc(F)c2OCc2ccccc2)n1 [Example 72] | 100 | 100 | 100 | –
COc1c(F)cc(COc2cccc(F)c2Nc2nc(N)nc(C(C)(C)F)n2)cc1F [Example 73] | 70 | 75 | – | –
CC(C)(F)c1nc(N)nc(Nc2c(F)cccc2OCc2cc(F)cc(F)c2F)n1 [Example 74] | 80 | 85 | – | –
CC(C)(F)c1nc(N)nc(Nc2c(OCc3cccc(F)c3)cc(F)c(F)c2F)n1 [Example 97] | 100 | 100 | 100 | –
CC(C)(F)c1nc(N)nc(Nc2c(F)cccc2OCc2csc(Cl)c2)n1 [Example 110] | – | 90 | 80 | –
COC(C)(C)c1nc(N)nc(Nc2c(F)cccc2OCc2cccc(F)c2)n1 [Example 114] | – | 90 | 90 | –
CC(C)(F)c1nc(N)nc(Nc2c(OC(F)(F)c3ccccc3)cc(F)c(F)c2F)n1 [Example 116] | 100 | 100 | 100 | –
COC(C)(C)c1nc(N)nc(Nc2c(F)cccc2OC(F)(F)c2ccccc2)n1 [Example 117] | 100 | 100 | 100 | –
CC(C)(F)c1nc(N)nc(Nc2c(OC(F)(F)c3cccc(F)c3)cc(F)c(F)c2F)n1 [Example 129] | 100 | 100 | 100 | –
CC(C)Oc1cccc(COc2cccc(F)c2Nc2nc(N)nc(C(C)(C)F)n2)c1 [Example 132] | 90 | 100 | 90 | –
COC(C)(C)c1nc(N)nc(Nc2c(F)ccc(F)c2OCc2ccccc2)n1 [Example 135] | 100 | 100 | 100 | –
CCc1ccc(COc2c(F)ccc(F)c2Nc2nc(N)nc(C(C)(C)F)n2)cc1 [Example 140] | – | 98 | 100 | –
CC(C)(F)c1nc(N)nc(Nc2c(F)ccc(F)c2OC(F)(F)c2ccccc2)n1 [Example 142] | 100 | 100 | 100 | –
CC(C)(F)c1nc(N)nc(Nc2c(F)ccc(Cl)c2OCc2ccccc2)n1 [Example 148] | 100 | 100 | 100 | –
CC(C)=C(F)c1nc(N)nc(Nc2c(F)cccc2OCc2ccccc2)n1 [Example 152] | 100 | – | 90 | –
CC(C)(F)c1nc(N)nc(Nc2c(F)cccc2OCc2cccs2)n1 [Example 154] | 100 | 100 | 100 | –

Compound | herbicidal activity [1] [%] | herbicidal activity [2] [%] | herbicidal activity [3] [%] | herbicidal activity [4] [%]
CC(F)c1nc(N)nc(Nc2c(F)cccc2OCc2ccccc2)n1 (stereo not drawn) [Example 161] | – | 100 | 100 | –
CCCC(F)c1nc(N)nc(Nc2c(OCc3ccccc3)cc(F)c(F)c2F)n1 (stereo not drawn) [Example 169] | 80 | – | 85 | –
CCCC(F)c1nc(N)nc(Nc2c(F)ccc(F)c2OCc2ccccc2)n1 (stereo not drawn) [Example 170] | 90 | 100 | 90 | –
CC(F)c1nc(N)nc(Nc2c(F)cccc2OC(F)(F)c2ccccc2)n1 (stereo not drawn) [Example 171] | 100 | 85 | 100 | –
CC(C)(F)c1nc(N)nc(Nc2c(OCc3c(F)cccc3Cl)ccc(F)c2F)n1 [Example 176] | 80 | 100 | 100 | –
COc1ccc(COc2ccc(F)c(F)c2Nc2nc(N)nc(C(C)(C)F)n2)cc1 [Example 186] | – | 98 | – | 85
COC(C)c1nc(N)nc(Nc2c(F)ccc(F)c2OCc2ccccc2)n1 (stereo not drawn) [Example 191] | 95 | 100 | 100 | –
COc1ccc(COc2c(F)ccc(F)c2Nc2nc(N)nc(C(C)(C)F)n2)cc1 [Example 192] | – | 100 | 100 | –
CC(C)c1nc(N)nc(Nc2c(F)cccc2OCc2ccccc2)n1 [Example 194] | – | 100 | 70 | –
CC(F)c1nc(N)nc(Nc2c(F)c(F)cc(F)c2OCc2ccccc2)n1 (stereo not drawn) [Example 209] | 100 | 100 | 100 | –
COc1ccccc1COc1c(F)cc(F)c(F)c1Nc1nc(N)nc(C(C)F)n1 (stereo not drawn) [Example 210] | 100 | 100 | 100 | –
COc1cccc(COc2c(F)cc(F)c(F)c2Nc2nc(N)nc(C(C)F)n2)c1 (stereo not drawn) [Example 211] | 100 | 100 | 100 | –
COc1ccc(COc2c(F)cc(F)c(F)c2Nc2nc(N)nc(C(C)F)n2)cc1 (stereo not drawn) [Example 212] | 100 | 100 | 100 | –
COC(C)(C)c1nc(N)nc(Nc2c(F)c(F)cc(F)c2OCc2ccccc2)n1 [Example 213] | 100 | 100 | 100 | –
COc1cccc(COc2c(F)cc(F)c(F)c2Nc2nc(N)nc(C(C)(C)OC)n2)c1 [Example 215] | 100 | 98 | 98 | –
Cc1cccc(COc2c(F)cc(F)c(F)c2Nc2nc(N)nc(C(C)F)n2)c1 (stereo not drawn) [Example 230] | 95 | 95 | 95 | –
CC(C)(F)c1nc(N)nc(Nc2c(F)c(Br)cc(Br)c2OCc2ccccc2)n1 [Example 235] | 85 | 90 | 100 | –
COC(C)c1nc(N)nc(Nc2c(F)c(F)cc(F)c2OCc2ccccc2C)n1 (stereo not drawn) [Example 237] | 95 | 100 | 95 | –
COC(C)c1nc(N)nc(Nc2c(F)c(F)cc(F)c2OCc2cccc(C)c2)n1 (stereo not drawn) [Example 238] | 80 | 98 | 100 | –
COC(C)c1nc(N)nc(Nc2c(F)c(F)cc(F)c2OCc2ccccc2F)n1 (stereo not drawn) [Example 240] | 100 | 90 | 95 | –
COC(C)c1nc(N)nc(Nc2c(F)c(F)cc(F)c2OCc2cccc(F)c2)n1 (stereo not drawn) [Example 241] | 100 | 85 | 85 | –
CCC(C)(F)c1nc(N)nc(Nc2c(F)c(F)cc(F)c2OCc2ccccc2)n1 (stereo not drawn) [Example 247] | 100 | 100 | 100 | –
Nc1nc(Nc2c(F)c(F)cc(F)c2OCc2ccccc2)nc(C2(F)CCCCC2)n1 [Example 256] | 100 | 100 | 100 | –
CC(C)(F)c1nc(N)nc(Nc2c(F)ccc(C#N)c2OCc2ccccc2)n1 [Example 259] | 100 | – | 100 | –
